# Experimental data: the supplement of paper PMC6461962
# Experiments:
# [1] = tested on: Rhodanobacter sp. FW104-10B01
# Outline: (§1)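 Cells were washed and added to 384-well plates at a final OD600 of 0.02 in 80 µL, with serial dilutions of inorganic ion salts or equimolar nitrilotriacetic acid complexes. Aerobic plates were shaken at 700 rpm at 30 °C, while anaerobic plates were not shaken, and OD600 was read at 24 h, or at 48 h for R2A strain comparisons. Readings were scaled between water controls and growth-blocking antibiotic controls, and wells with precipitate were excluded. The IC50 was obtained by fitting curves from at least two biological replicates with the drc R package.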
# [2] = tested on: Pseudomonas fluorescens FW300-N2E2
# Outline: as §1
# [3] = medium / electron acceptor: 10B01 R2A/aerobic
# [4] = medium / electron acceptor: 10B01 R2A/nitrate
# [5] = medium / electron acceptor: N2E2 Glucose/aerobic
# [6] = medium / electron acceptor: N2E2 Glucose/aerobic 0.25xMinerals
# [7] = medium / electron acceptor: N2E2 Glucose/aerobic (2)
# [8] = medium / electron acceptor: N2E2 KB/aerobic
# [9] = medium / electron acceptor: N2E2 LB/aerobic
# [10] = medium / electron acceptor: N2E2 LB/aerobic (2)
# [11] = medium / electron acceptor: N2E2 LB/nitrate
# [12] = medium / electron acceptor: N2E2 Lactate/aerobic
# [13] = medium / electron acceptor: N2E2 R2A/aerobic
Compound,"IC50 growth inhibition [1, 3] [mM]","IC50 growth inhibition [1, 4] [mM]","IC50 growth inhibition [2, 5] [mM]","IC50 growth inhibition [2, 6] [mM]","IC50 growth inhibition [2, 7] [mM]","IC50 growth inhibition [2, 8] [mM]","IC50 growth inhibition [2, 9] [mM]","IC50 growth inhibition [2, 10] [mM]","IC50 growth inhibition [2, 11] [mM]","IC50 growth inhibition [2, 12] [mM]","IC50 growth inhibition [2, 13] [mM]"
O=[N+]([O-])[O-].[Na+] [Sodium nitrate],> 500,> 500,275,> 500,324,354,354,383,> 500,354,400
O.O.O.O.O.O.[Cl][Cr]([Cl])[Cl] [Chromium(III) Chloride Hexahydrate],2.16,3.46,< 0.00244,< 0.00244,< 0.00244,> 5,4.91,4.91,> 5,< 0.00244,0.322
O.O.[Na+].[Na+].[O]=[W](=[O])([O-])[O-] [Sodium tungstate dihydrate],> 500,> 500,< 0.244,< 0.244,3.31,1.17,0.539,20.5,21.3,< 0.244,237
[O-][I+2]([O-])O [sodium iodate],35.4,4.5,4.72,2.75,0.645,3.53,8.49,12.4,0.208,5.41,7.77
O.O.O.O.O.O.[Al+3].[Cl-].[Cl-].[Cl-] [Aluminum chloride hydrate],3.54,> 5,> 5,0.409,> 5,> 5,> 5,> 5,4.64,> 5,0.227
[Cl-].[Cl-].[Zn+2] [Zinc chloride],1.77,4.5,< 0.00244,< 0.00244,< 0.00244,2.72,2.62,2.55,0.58,< 0.00244,0.0704
O.O=[Te]([O-])[O-].[K+].[K+] [Potassium tellurite hydrate],0.01,0.01,< 0.00244,< 0.00244,< 0.00244,< 0.00244,< 0.00244,< 0.00244,0.01,< 0.00244,< 0.00244
O=C(O)CN(CC(=O)O)CC(=O)O [Nitrilotriacetic acid],> 250,> 250,0.345,21.4,6.51,15.3,54.7,111,6.75,< 0.122,9.21
O=[Si](O)O [Sodium metasilicate],< 0.244,< 0.244,< 0.244,< 0.244,< 0.244,< 0.244,< 0.244,< 0.244,< 0.244,< 0.244,< 0.244
[K+].[K+].[O]=[Cr](=[O])([O-])[O-] [Potassium chromate],0.123,< 0.244,< 0.244,< 0.244,< 0.244,< 0.244,< 0.244,< 0.244,31,< 0.244,0.0094
O=P([O-])(O)O.[Na+] [Sodium phosphate monobasic monohydrate],354,128,50.2,> 500,73.8,308,307,354,2.25,30.3,15.7
[O-][Cl+3]([O-])([O-])O [Sodium perchlorate monohydrate],354,5.54,67.2,356,117,82,95,106,69.8,235,89.4
O.[Au+3].[Cl-].[Cl-].[Cl-] [gold (III) chloride hydrate],< 0.000244,< 0.000244,< 0.000244,0.00197,< 0.000244,< 0.000244,< 0.000244,< 0.000244,< 0.000244,0.000257,< 0.000244
OP(O)O [Sodium phosphite dibasic pentahydrate],> 500,197,< 0.244,< 0.244,< 0.244,2.03,354,354,118,< 0.244,309
O=S(O)(O)=S [Sodium thiosulfate],> 500,57.6,318,> 500,386,319,363,360,185,355,360
[Cl-].[K+] [Potassium Chloride],> 500,381,> 500,> 500,> 500,> 500,> 500,> 500,458,> 500,> 500
